From patent US9180118B2, “Thiadiazolidinone derivatives” (University of Rochester, priority 2006, dated 2015)
Where a SMILES comes first, the peptide text is derived from it. The star is where a group is joined. Cbz = O=C(OCc1ccccc1)*; CH2F = FC*

How the values were obtained:
primary AML specimens = assay: Viability of primary AML specimens, Annexin V/7-AAD flow cytometry; type: cell-based, human; conditions: for Rapid kinetics: cell death kinetics; for Cytotoxic AML: primary AML specimens
Method: (§1) The cells were isolated and processed as described. […] All drug treatments were performed in triplicate. […] Total viable cell numbers were determined using a flow cytometric apoptosis assay as described. Briefly, after 18 h of treatment, specimens were labeled with anti-CD34-PE (Becton Dickinson, San Jose, Calif.) for 20 minutes. […] The total number of events collected was 100,000. The percent viable cells was defined as AnnexinV^neg/7-AAD^neg cells on total (ungated) cells and on gates set for CD34^+ populations. • [1] Jordan, C. T., et al., The interleukin-3 receptor alpha chain is a unique marker for human acute myelogenous leukemia stem cells. Leukemia, 2000. 14(10): p. […] Lansdorp, P. M. and W. Dragowska, Long-term erythropoiesis from constant numbers of CD34+ cells in serum-free cultures initiated with highly purified progenitor cells from human bone marrow. […] Guzman, M. L., et al., Nuclear factor-kappaB is constitutively activated in primitive human acute myelogenous leukemia cells. […] 98(8): p.

[1] = tested on: normal specimens (BM, CB, MPB); assay: Viability of normal specimens (BM, CB, MPB), Annexin V/7-AAD; type: cell-based, human; conditions: normal specimens
Method: as §1

[2] = listed as 2-chloro-1-(4,5-dibromo-thiophen-2-yl-ethanone)
[3] = pre-treated 1 h prior to 20 μM TDZD-8, viability at 24 hours

Compound | Rapid kinetics (primary AML specimens) | Cytotoxic AML (primary AML specimens) | Cytotoxic Normal [1] | Cytotoxic AML (primary AML specimens; [2]) | Cytotoxic Normal [1, 2] | effect of pretreatment on cell death induced by TDZD-8 (primary AML specimens; [3]) | abrogation of TDZD-8 induced death by pan-caspase inhibitor (primary AML specimens; [3])
O=C1Cc2c([nH]c3ccc(Br)cc23)-c2ncccc2N1 [1-Azakenpaullone] | No | No | No | – | – | – | –
O=c1sn(Cc2ccccc2)c(=S)n1Cc1ccccc1 [2,4-Dibenzyl-5-oxothiadiazolidine-3-thione] | No | No | No | – | – | – | –
O=C1CSC(=O)N1 [2,4-thiazolidinedione] | No | No | No | – | – | – | –
O=C(CCl)c1cc(Br)c(Br)s1 [2-Chloro-1-(4,5-dibromo-thiophen-2-yl)-ethanone] | No | Yes | Yes | could induce AML cell death | toxic to normal cells | – | –
O=C1NC(=O)C(=Cc2ccc3c(c2)OC(F)(F)O3)S1 [5-(2,2-Difluoro-benzo[1,3]dioxol-5-ylmethylene)-thiazolidine-2,4-dione] | No | – | – | – | – | – | –
Cc1cc(Nc2nc(-c3ccccc3)nc3ccccc23)n[nH]1 [(5-Methyl-1H-pyrazol-3-yl)-(2-phenylquinazolin-4-yl)amine] | No | No | No | – | – | – | –
CCOc1ccc(C=C2SC(=O)N(CCN)C2=O)cc1.Cl [-(2-Aminoethyl)-5-((4-ethoxyphenyl)methylene)-2,4-thiazolidinedione, HCl] | No | No | No | – | – | – | –
COc1ccc(CNC(=O)Nc2ncc([N+](=O)[O-])s2)cc1 [AR-A014418] | No | No | No | – | – | – | –
O=C1Nc2cc(Br)ccc2/C1=C1/Nc2ccccc2/C1=N\O [BIO] | – | No | No | – | – | – | –
O=C1NC(=O)C(Cc2ccc(OCCN3COc4ccccc4C3=O)cc2)S1 (stereo not drawn) [DRF 2519] | No | No | No | – | – | – | –
CC(=O)N[C@@H](CS)C(=O)O [NAC, N-acetyl-cysteine] | – | – | – | – | – | completely blocked the cell death response | –
Cn1cc(C2=C(c3ccc(Cl)cc3Cl)C(=O)NC2=O)c2ccccc21 [SB-216763] | No | No | No | – | – | – | –
Nc1cccc(-c2cc3c(Oc4cccc(O)c4)ncnc3[nH]2)c1 [TWS119] | No | No | No | – | – | – | –
Cc1c(C)c2c(c(C)c1O)CCC(C)(COc1ccc(CC3SC(=O)NC3=O)cc1)O2 (stereo not drawn) [Troglitazone] | – | Yes | Yes | – | – | – | –
CC(NC(=O)C(NC(=O)OCc1ccccc1)C(C)C)C(=O)NC(CC(=O)O)C(=O)CF (stereo not drawn) [Z-VAD] (Cbz-Val-Ala-Asp-CH2F; configuration not given here) | – | – | – | – | – | – | no abrogation of death was observed
